Measurements as given in publication PMC6430017, “Structural and chemical insights into the covalent-allosteric inhibition of the protein kinase Akt” (Chemical Science, 2019).
Like-named read-outs stand apart in the source and are kept apart here.

What was measured:
AN3CA = assay: Cell viability assay (CellTiter-Glo); assay type: cell-based; details: Homo sapiens, AN3-CA, 120 h, read-out: Cell viability assay EC50
Description: Cell Culture and Viability Assay
(§1) analysis, cells were plated on day 0 into white 384-well cell culture plates (Greiner Bio-One) using a
(§2) Multidrop reagent dispenser (Thermo) at cell numbers that ensure linear and optimal luminescent
(§3) signal intensity (AN3-CA: 800 cells/well; BT-474: 400 cells/well; Dan-G: 400 cells/well; HPAF-II: 400
(§4) cells/well). Then the cells were incubated for 24 h in a humidified atmosphere at 37 °C/5 % CO2. The
(§5) cells were treated with inhibitors in serial dilutions ranging from 30 µM down to 0.1 nM using an Echo
(§6) 520 acoustic liquid handler (Labcyte Inc.). Cell viability was analysed on day 5 using the CellTiter-Glo
(§7) assay (Promega) as per manufacturer’s instructions. Luminescence signal was recorded by an EnVision
(§8) Multilabel 2104 Plate Reader (PerkinElmer) with 500 ms integration time. All data were normalized to
(§9) the plate positive control (30 µM staurosporine) and negative control (DMSO). Finally, the data was
(§10) processed with the Quattro Software Suite using a four parameter logistic model. As a quality control,
(§11) the Z’-factor was calculated from 16 positive and negative control values. Only assay results showing
(§12) a Z’-factor ≥ 0.5 were used for further analysis. All experimental points were measured in duplicates
(§13) for each plate and were replicated in at least three times.

T47D = assay: Cell viability assay (CellTiter-Glo); assay type: cell-based; details: Homo sapiens, 120 h, read-out: Cell viability assay EC50
Description: Cell Culture and Viability Assay
as §1, §2, §3, §4, §5, §6, §7, §8, §9, §10, §11, §12, §13

ZR-75-1 = assay: Cell viability assay (CellTiter-Glo); assay type: cell-based; details: Homo sapiens, read-out: Cell viability assay EC50
Description: Cell Culture and Viability Assay
as §1, §2, §3, §4, §5, §6, §7, §8, §9, §10, §11, §12, §13

MCF-7 = assay: Cell viability assay (CellTiter-Glo); assay type: cell-based; details: Homo sapiens, MCF7, 120 h, read-out: Cell viability assay EC50
Description: Cell Culture and Viability Assay
as §1, §2, §3, §4, §5, §6, §7, §8, §9, §10, §11, §12, §13

BT-474 = assay: Cell viability assay (CellTiter-Glo); assay type: cell-based; details: Homo sapiens, read-out: Cell viability assay EC50
Description: Cell Culture and Viability Assay
as §1, §2, §3, §4, §5, §6, §7, §8, §9, §10, §11, §12, §13

KU-19-19 = assay: Cell viability assay (CellTiter-Glo); assay type: cell-based; details: Homo sapiens, read-out: Cell viability assay EC50
Description: Cell Culture and Viability Assay
as §1, §2, §3, §4, §5, §6, §7, §8, §9, §10, §11, §12, §13

[1] = Phase I metabolic stability assay; details: human
Description: (§14) For this purpose, we used a microsomal stability assay that is a good predictor for phase I metabolic stability.[50]
(§15) Metabolic stability under oxidative conditions was determined by LCMS-based measuring of
(§16) degradation of compounds at 3 µM in human and murine liver microsomes over 60 minutes at 37 °C
(§17) Calculating the compound half-life t1/2, the in vitro intrinsic clearance CLint is

full-length Akt (Akt^wt) [2] = biological target: T1, full-length Akt (Akt^wt) (Homo sapiens, UniProt P31749); assay: HTRF KinEASE activity-based assay, IC50 determination; assay type: biochemical; details: for IC50: HTRF KinEASE
T1 sequence (P31749 whole entry): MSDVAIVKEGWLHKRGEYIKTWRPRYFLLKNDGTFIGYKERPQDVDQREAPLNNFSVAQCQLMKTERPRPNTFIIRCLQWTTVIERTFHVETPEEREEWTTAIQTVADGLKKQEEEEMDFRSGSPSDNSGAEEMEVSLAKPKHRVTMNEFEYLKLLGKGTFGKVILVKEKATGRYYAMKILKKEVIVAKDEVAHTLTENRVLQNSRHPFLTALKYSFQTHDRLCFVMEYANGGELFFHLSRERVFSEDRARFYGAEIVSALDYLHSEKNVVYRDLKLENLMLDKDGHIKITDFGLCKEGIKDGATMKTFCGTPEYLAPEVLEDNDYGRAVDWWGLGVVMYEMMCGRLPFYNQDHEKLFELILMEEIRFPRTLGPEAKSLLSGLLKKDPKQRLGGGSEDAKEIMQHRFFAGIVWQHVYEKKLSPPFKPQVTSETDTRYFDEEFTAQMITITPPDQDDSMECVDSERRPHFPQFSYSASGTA
Description: (§18) The biochemical inhibitory activity (IC50) was determined with the HTRF KinEASE assay from Cisbio as
(§19) previously described.1 All reagents for HTRF experiments were purchased from Cisbio Bioassays,
(§20) France. The measurements were analyzed using the Quattro Software Suite for IC50-determination.
(§21) Time-dependent IC50-measurements were performed as described. Briefly, IC50 values were
(§22) determined for twelve different incubation times and afterwards plotted versus accordingly. Data was
(§23) analyzed according to literature procedure.2

full-length Akt (Akt^wt) [3] = biological target: T1, full-length Akt (Akt^wt); assay: Kinetic characterization by time-dependent IC50 measurements; assay type: biochemical; details: from time-dependent IC50
Description: as §18, §19, §20, §21, §22, §23

in vitro = details: human, microsomes
Description: as §14, §15, §16, §17

[4] = 120 h, KU-19-19 (bladder), day 5

| EC50 (T47D; T47D (breast), day 5) | EC50 (MCF-7; MCF-7 (breast), day 5) | EC50 (BT-474; 120 h, BT-474 (breast), day 5) | half-life at 1 h, 3 µM ([1]; liver microsomes) | microsomal CLint at 3 µM ([1]; liver microsomes) | IC50 (full-length Akt (Akt^wt) [2]) | Ki (full-length Akt (Akt^wt) [3]) | kinact (full-length Akt (Akt^wt) [3]) | kinact/KI (full-length Akt (Akt^wt) [3]) | Structure (SMILES) | EC50 (AN3CA; AN3CA (endometrium), day 5) | EC50 (ZR-75-1; 120 h, ZR-75-1 (breast), day 5) | EC50 (KU-19-19; [4]) | also measured |
| --- | --- | --- | --- | --- | --- | --- | --- | --- | --- | --- | --- | --- | --- |
| 832 ± 81 nM | 1220 ± 58 nM | 4620 ± 1060 nM |  |  |  |  |  |  | C=CC(=O)Nc1ccc(N2CCN(Cc3ccc(-c4nc5cc[nH]c(=O)c5cc4-c4ccccc4)cc3)CC2)cc1 [compound 31] | 3610 ± 1290 nM | 116 ± 16 nM |  |  |
| 179 ± 30 nM | 224 ± 88 nM | 621 ± 85 nM | 39 min | 12 µL/min/mg | 3.7 ± 0.7 nM | 7.6 ± 1.1 nM | 0.0013 s⁻¹ | 168000 ± 25000 M⁻¹ s⁻¹ | C=CC(=O)Nc1cc(Br)cc(C(=O)NC2CCN(Cc3ccc(-c4nc5cc[nH]c(=O)c5cc4-c4ccccc4)cc3)CC2)c1 [30e] | 568 ± 106 nM | 10 ± 3 nM | 6440 ± 1240 nM |  |
| 546 ± 87 nM | 2440 ± 1020 nM | 1960 ± 391 nM |  |  | 52.8 ± 16.3 nM | 98.6 ± 10 nM | 0.00142 s⁻¹ | 14000 ± 2000 M⁻¹ s⁻¹ | C=CC(=O)Nc1ccc(C(=O)NC2CCN(Cc3ccc(-c4nc5cc[nH]c(=O)c5cc4-c4ccccc4)cc3)CC2)c(F)c1 [30d] | 1310 ± 158 nM | 73 ± 25 nM | 6070 ± 1100 nM |  |
| 1900 ± 578 nM | 2200 ± 125 nM | 4020 ± 912 nM |  |  | 192 ± 45 nM | 327 ± 27 nM | 0.00118 s⁻¹ | 4000 ± 1000 M⁻¹ s⁻¹ | C=CC(=O)Nc1cccc(CNC2CCN(Cc3ccc(-c4nc5cc[nH]c(=O)c5cc4-c4ccccc4)cc3)CC2)c1 [compound 32] | 3290 ± 298 nM | 384 ± 62 nM | 6760 ± 1460 nM |  |
| 1360 ± 454 nM | 2840 ± 685 nM | 5210 ± 1890 nM |  |  | 285 ± 65 nM | 362 ± 74 nM | 0.0007 s⁻¹ | 2000 ± 1000 M⁻¹ s⁻¹ | C=CC(=O)Nc1ccc(C(=O)NC2CCN(Cc3ccc(-c4nc5cc[nH]c(=O)c5cc4-c4ccccc4)cc3)CC2)cc1 [30c] | 3470 ± 1690 nM | 151 ± 47 nM |  |  |
| 183 ± 52 nM | 1190 ± 518 nM | 1100 ± 212 nM | 39 min | 12 µL/min/mg | 14 ± 6.1 nM | 39.3 ± 6.6 nM | 0.00147 s⁻¹ | 38000 ± 7000 M⁻¹ s⁻¹ | C=CC(=O)Nc1ccc(C(=O)NC2CCN(Cc3ccc(-c4nc5cc[nH]c(=O)c5cc4-c4ccccc4)cc3)CC2)s1 [30f] | 879 ± 223 nM | 33 ± 9 nM | 3060 ± 848 nM |  |
| 41 ± 19 nM | 1020 ± 621 nM | 2270 ± 700 nM |  |  | 10.8 ± 2.5 nM | 27.2 ± 4.2 nM | 0.0023 s⁻¹ | 85000 ± 18000 M⁻¹ s⁻¹ | C=CC(=O)Nc1ccccc1C(=O)NC1CCN(Cc2ccc(-c3nc4cc[nH]c(=O)c4cc3-c3ccccc3)cc2)CC1 [30a] | 1330 ± 60 nM | 22 ± 7 nM | 5540 ± 1510 nM |  |

Continued, molecule first:

| Structure (SMILES) | EC50 (T47D; T47D (breast), day 5) | EC50 (MCF-7; MCF-7 (breast), day 5) | EC50 (BT-474; 120 h, BT-474 (breast), day 5) | half-life at 1 h, 3 µM ([1]; liver microsomes) | microsomal CLint at 3 µM ([1]; liver microsomes) | IC50 (full-length Akt (Akt^wt) [2]) | Ki (full-length Akt (Akt^wt) [3]) | kinact (full-length Akt (Akt^wt) [3]) | kinact/KI (full-length Akt (Akt^wt) [3]) | EC50 (AN3CA; AN3CA (endometrium), day 5) | EC50 (ZR-75-1; 120 h, ZR-75-1 (breast), day 5) | EC50 (KU-19-19; [4]) | also measured |
| --- | --- | --- | --- | --- | --- | --- | --- | --- | --- | --- | --- | --- | --- |
| NC1(c2ccc(-c3nc4ccn5c(=O)[nH]nc5c4cc3-c3ccccc3)cc2)CCC1 [MK-2206, reference compound] |  |  | 1680 ± 316 nM | 347 min | 1 µL/min/mg |  |  |  |  |  | 63 ± 21 nM | 7050 ± 421 nM |  |
| NC1(C(=O)N[C@@H](CCO)c2ccc(Cl)cc2)CCN(c2ncnc3[nH]ccc23)CC1 [Capivasertib, reference compound] |  | 555 nM | 1600 ± 450 nM | 33 min | 14 µL/min/mg |  |  |  |  |  |  |  |  |
| CN(C)C/C=C/C(=O)Nc1ccc2[nH]c(=O)n(C3CCN(Cc4ccc(-c5nc6cc[nH]c(=O)c6cc5-c5ccccc5)cc4)CC3)c2c1 [24c] | 2110 ± 49 nM |  |  |  |  | 18.1 ± 4.9 nM | 33 ± 2.4 nM | 0.000833 s⁻¹ | 25000 ± 5000 M⁻¹ s⁻¹ |  | 427 ± 23 nM | > 30000 nM | fold loss in inhibitory activity (IC50) compared to 1 (full-length Akt (Akt^wt) [2]): 20 fold |
| C=CC(=O)Nc1cc2c(cc1Cl)[nH]c(=O)n2C1CCN(Cc2ccc(-c3nc4cc[nH]c(=O)c4cc3-c3ccccc3)cc2)CC1 [24a] | 25 ± 7 nM | 138 ± 81 nM | 259 ± 68 nM |  |  | 1.2 ± 0.3 nM |  |  |  | 159 ± 70 nM | 2 nM | 2310 ± 908 nM | half-life at 1 h, 3 µM (in vitro): 87 min; microsomal CLint at 3 µM (in vitro): 5 µL/min/mg |
| C=CC(=O)Nc1ccc2[nH]c(=O)n(C3CCN(Cc4ccc(-c5nc6cc[nH]c(=O)c6cc5-c5ccccc5)cc4)CC3)c2c1 [compound 1, borussertib] |  |  |  |  |  |  |  |  |  |  |  |  | EC50 (MCF-7): 277 ± 90 nM; EC50 (BT-474; BT-474, 120 h): 373 ± 54 nM; EC50 (KU-19-19; KU-19-19, 120 h): 7770 ± 641 nM; half-life at 1 h, 3 µM ([1]; microsomes): 99 min; microsomal CLint at 3 µM ([1]; microsomes): 5 µL/min/mg |
| CC(C)NC[C@@H](C(=O)N1CCN(c2ncnc3c2[C@H](C)C[C@H]3O)CC1)c1ccc(Cl)cc1 [Ipatasertib, reference compound] |  |  |  | 39 min | 12 µL/min/mg |  |  |  |  |  |  |  | EC50 (AN3CA): 925 ± 457 nM; EC50 (T47D; T47D): 443 ± 6 nM; EC50 (ZR-75-1; ZR-75-1, 120 h): 219 ± 83 nM; EC50 (MCF-7): 5040 ± 1830 nM; EC50 (BT-474; BT-474, 120 h): 2370 ± 745 nM |
| COc1cccc2c1C(=O)c1c(O)c3c(c(O)c1C2=O)C[C@@](O)(C(=O)CO)C[C@@H]3O[C@H]1C[C@H](N)[C@H](O)[C@H](C)O1 [Doxorubicin, reference compound] | 127 ± 40 nM | 153 ± 9 nM | 623 ± 134 nM |  |  |  |  |  |  | 30 ± 9 nM | 100 ± 26 nM | 72 ± 8 nM |  |
